Entries after “also recorded” stand apart in the source; their conditions may differ.
What was measured:
[1] = test system: IPdR oxidase; assay: Conversion of IPdR to IUdR by cell extracts (rat tissues); type: in vitro ADME
Procedure: (§1) Rat hepatic tissue was washed with ice-cold 1.15% KCl and blotted dry. The tissue was then homogenized with a tissue homogenizer, in a volume of 1.15% KCl that was 3 times the tissue weight, to form a 25% (w/v) homogenate. The homogenate was then centrifuged at 10,000 g for 10 minutes at 4° C. The resulting supernatant was filtered through Miracloth (similar to cheese cloth) then dialyzed overnight against 50 mM Tris-HCl buffer pH 7.5 and stored at -80° C. before use. Rat hepatocytes were obtained by a perfusion technique then the cells were extracted with 10 mM phosphate buffer, pH 7.5, containing 1M KCl and dialyzed for 4 hours against 50 mM Tris-HCl buffer pH 7.5.
For the standard assay condition, the reaction mixture contained 50 mM Tris-HCl, pH 7.5, 1 mM EDTA, 180 μM of IPdR (or its analogs) and approximately 0.01 mg protein of 10,000 g supernatant of tissue homogenate in a final volume of 500 μl and the incubation was at 37° C. for 10 minutes unless specified otherwise. 300 μl of reaction mixture was removed at the end of incubation and mixed with 630 μl acetonitrile then agitated. The precipitated protein were removed by centrifugation and the supernatant was lyophilized to dryness. The samples were reconstituted to the original aliquot volume with the HPLC mobile phase buffer and analyzed on a Alltech RP-18 column. IPdR, IUdR and IU were detected at a UV absorption wavelength of 230 nm, and IPdR was also detected at a UV absorption wavelength of 335 nm. The mobile phase was 10% acetonitrile/90%mM ammonium acetate, pH 6.8 and the flow rate was 1 ml/minute. Standard curves of IPdR and IUdR were established from the integration value of known concentrations.
(§2) Differential fractionation centrifugation was used in an attempt to localize this IPdR conversion enzyme activity in the liver homogenate. The enzyme activity assay was performed on each fraction. […] Further purification was achieved by use of DEAE cellulose column chromatography, blue Sepharose column chromatography and glycerol gradient centrifugation in this order. This IPdR oxidase activity was purified 380 fold starting from the crude extracts of rat liver. The partially purified enzyme catalyzed IUdR synthesis at a rate of 3.8 μmoles per minute per milligram of protein at 37° C. under these conditions. The apparent molecular weight of this enzyme in both rats and humans as determined by centrifugation on a 20 to 40% glycerol gradient is approximately 280,000 dalton. Neither cofactor nor divalent cations requirement has been found for the rat liver enzyme or the human liver enzyme.
Tissue specificity of the conversion of IPdR

[2] = test system: IPdR oxidase; assay: IUdR synthesis by partially purified IPdR oxidase; type: biochemical; conditions: 37° C., rat liver enzyme purified 380 fold
Procedure: as §2

[3] = test system: Xanthine oxidase; conditions: shown previously (Lewandowski et al. 1989); cited from earlier work
[4] = test system: rat liver homogenate; assay: HPLC time course of conversion of IPdR by rat liver homogenate; type: in vitro ADME
Procedure: FIGS. 1A-1C depict HPLC profiles of the conversion of IPdR to IUdR by liver homogenate. IPdR was incubated with rat liver homogenate. For control reactions, a portion of the supernatant was boiled for 5 minutes to inactivate all enzymes before use. The assay condition was as described hereinafter except 60 μl of the 100,000 g×60 minute supernatant (equivalent to approximately 0.5 mg protein/ml) was used in a reaction volume of 1500 μl . […]
(§3) For the standard assay condition, the reaction mixture contained 50 mM Tris-HCl, pH 7.5, 1 mM EDTA, 180 μM of IPdR (or its analogs) and approximately 0.01 mg protein of 10,000 g supernatant of tissue homogenate in a final volume of 500 μl and the incubation was at 37° C. for 10 minutes unless specified otherwise. […] The samples were reconstituted to the original aliquot volume with the HPLC mobile phase buffer and analyzed on a Alltech RP-18 column. IPdR, IUdR and IU were detected at a UV absorption wavelength of 230 nm, and IPdR was also detected at a UV absorption wavelength of 335 nm. […]
To study the conversion of IPdR to IUdR by liver enzyme the metabolites of IPdR were analyzed after incubation with a supernatant of rat liver homogenate using a reverse phase HPLC technique. IPdR and IUdR could be detected at an absorption wavelength of 230 nm but only IPdR could be detected at 335 nm. […]

[5] = test system: uninfected cells; conditions: Lewandowski et al. 1989; cited from earlier work
[6] = test system: IPdR oxidase; assay: Conversion of IPdR to IUdR by cell extracts (human liver); type: in vitro ADME; conditions: 3 samples
Procedure: as §1
as §3, with “otherwise. 300 μl of reaction mixture was removed at the end of incubation and mixed with 630 μl acetonitrile then agitated.” for “otherwise.”

[7] = test system: bone marrow, gut and liver tissue; assay: Thymidine replacement in tissues of athymic nude mice; type: in vivo
Procedure: Mice were administered daily oral dosages of 0, 100, 250 and 500 mg/kg. Percent dThd replacement as indicative of IPdR incorporation into bone marrow, gut and liver tissue was assayed according to known methods. […] Results presented in FIG. 6 are mean percent thymidine replacement ± one standard error of the mean. N is greater or equal to 3 for each dose.

O=c1ncc(I)cn1[C@H]1C[C@H](O)[C@@H](CO)O1 [IPdR, 1-(2-deoxy-β-D-ribofuranosyl)-5-(iodo)-2-pyrimidinone]
IPdR oxidase specific activity of hepatocyte extracts ([1]; compared with whole liver extract): very similar specific activity | Specific activity of the conversion of IPdR to IUdR ([1]; hepatocyte (rat), 3 samples): 5-11 n mole/mg protein/min | Specific activity of the conversion of IPdR to IUdR ([1]; intestine (rat), 3 samples, conversion not detected): < 0.02 n mole/mg protein/min | Specific activity of the conversion of IPdR to IUdR ([1]; kidney (rat), 3 samples): 0.8-1.6 n mole/mg protein/min | Specific activity of the conversion of IPdR to IUdR ([1]; liver (rat), 5 samples): 5-15 n mole/mg protein/min | Specific activity of the conversion of IPdR to IUdR ([1]; lung (rat), 3 samples, conversion not detected): < 0.02 n mole/mg protein/min | IPdR oxidase activity in extracts of kidney and spleen ([1]; rat kidney and spleen extracts, compared with liver): much less active | IPdR oxidase activity in lung or intestine extracts ([1]; rat lung or intestine extracts): cannot be detected | Specific activity of the conversion of IPdR to IUdR ([1]; spleen (rat), 3 samples): 0.2-0.5 n mole/mg protein/min | rate of IUdR synthesis by partially purified enzyme [2]: 3.8 μmoles per minute per milligram of protein | conversion of IPdR to IUdR by xanthine oxidase [3]: could not be converted to IUdR | conversion of IPdR to IUdR over time ([4]; 37° C., 0, 15, 30 minutes (FIG. 1)): time dependent conversion of IPdR to IUdR | product produced from IPdR ([4]; IUdR): IUdR appeared to be the only product | toxicity to uninfected cells [5]: not toxic | Specific activity of the conversion of IPdR to IUdR [6]: 2-7 n mole/mg protein/min | incorporation of IUdR into liver ([7]; oral, 100, 250, 500 mg/kg daily): No incorporation of IUdR into liver was found | percent thymidine replacement in bone marrow and gut ([7]; oral, 100, 250, 500 mg/kg daily (FIG. 6)): relatively low; also recorded: relatively small amounts

Source: US5728684A, “Determination of prodrugs metabolizable by the liver and therapeutic use thereof” (priority 1994, dated 1998)
